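Five concentrations, 48 hours, 96-well plates. The concentration for 50% growth inhibition is given as GI50. TGI marks complete inhibition of growth.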
Experiments:
Experiment in all cases: NCI-60 cell line screen, 48 h
786-0 renal = test system: 786-0 renal
A498 renal = test system: A498 renal
A549 NSCLC = test system: A549 NSCLC
ACHN renal = test system: ACHN renal
BT-549 breast = test system: BT-549 breast
CAKI-1 renal = test system: CAKI-1 renal
CCRF-CEM leukemia = test system: CCRF-CEM leukemia
COLO 205 colon = test system: COLO 205 colon
DU-145 prostate = test system: DU-145 prostate
EKVX NSCLC = test system: EKVX NSCLC
HCC-2998 colon = test system: HCC-2998 colon
HCT-116 colon = test system: HCT-116 colon
HCT-15 colon = test system: HCT-15 colon
HL-60(TB) leukemia = test system: HL-60(TB) leukemia
HOP-62 NSCLC = test system: HOP-62 NSCLC
HOP-92 NSCLC = test system: HOP-92 NSCLC
HS 578T breast = test system: HS 578T breast
HT29 colon = test system: HT29 colon
IGROV1 ovarian = test system: IGROV1 ovarian
K-562 leukemia = test system: K-562 leukemia
KM12 colon = test system: KM12 colon
LOX IMVI melanoma = test system: LOX IMVI melanoma
M14 melanoma = test system: M14 melanoma
MALME-3M melanoma = test system: MALME-3M melanoma
MCF7 breast = test system: MCF7 breast
MDA-MB-231 breast = test system: MDA-MB-231 breast
MDA-MB-435 = test system: MDA-MB-435
MDA-MB-468 breast = test system: MDA-MB-468 breast
MOLT-4 leukemia = test system: MOLT-4 leukemia
NCI-H226 lung = test system: NCI-H226 lung
NCI-H23 lung = test system: NCI-H23 lung
NCI-H460 lung = test system: NCI-H460 lung
NCI-H522 lung = test system: NCI-H522 lung
NCI/ADR-RES ovarian = test system: NCI/ADR-RES ovarian
OVCAR-3 ovarian = test system: OVCAR-3 ovarian
OVCAR-4 ovarian = test system: OVCAR-4 ovarian
OVCAR-5 ovarian = test system: OVCAR-5 ovarian
OVCAR-8 ovarian = test system: OVCAR-8 ovarian
PC-3 prostate = test system: PC-3 prostate
RPMI-8226 leukemia = test system: RPMI-8226 leukemia
RXF 393 renal = test system: RXF 393 renal
SF-268 CNS = test system: SF-268 CNS
SF-295 CNS = test system: SF-295 CNS
SF-539 CNS = test system: SF-539 CNS
SK-MEL-2 melanoma = test system: SK-MEL-2 melanoma
SK-MEL-28 melanoma = test system: SK-MEL-28 melanoma
SK-MEL-5 melanoma = test system: SK-MEL-5 melanoma
SK-OV-3 ovarian = test system: SK-OV-3 ovarian
SN12C renal = test system: SN12C renal
SNB-19 CNS = test system: SNB-19 CNS
SNB-75 CNS = test system: SNB-75 CNS
SR leukemia = test system: SR leukemia
SW-620 colon = test system: SW-620 colon
T-47D breast = test system: T-47D breast
TK-10 renal = test system: TK-10 renal
U251 CNS = test system: U251 CNS
UACC-257 melanoma = test system: UACC-257 melanoma
UACC-62 melanoma = test system: UACC-62 melanoma
UO-31 renal = test system: UO-31 renal

O=C(N/N=C/c1ccc(Cl)cc1)c1ccc(OCc2nc3ccc(Cl)cc3[nH]2)cc1
GI50 (786-0 renal): 4.34 µM
TGI (786-0 renal): 16.9 µM
GI50 (A498 renal): 21.4 µM
TGI (A498 renal): 38.4 µM
GI50 (A549 NSCLC): 12 µM
TGI (A549 NSCLC): 34.2 µM
GI50 (ACHN renal): 14.3 µM
TGI (ACHN renal): 27.8 µM
GI50 (BT-549 breast): 19.5 µM
TGI (BT-549 breast): 41.6 µM
GI50 (CAKI-1 renal): 17 µM
TGI (CAKI-1 renal): 34 µM
GI50 (CCRF-CEM leukemia): 6.78 µM
TGI (CCRF-CEM leukemia): 37.1 µM
GI50 (COLO 205 colon): 15.3 µM
TGI (COLO 205 colon): 32.1 µM
GI50 (DU-145 prostate): 10.8 µM
TGI (DU-145 prostate): 25.3 µM
GI50 (EKVX NSCLC): 14.9 µM
TGI (EKVX NSCLC): 28.9 µM
GI50 (HCC-2998 colon): 11.5 µM
TGI (HCC-2998 colon): 25.8 µM
GI50 (HCT-116 colon): 4.46 µM
TGI (HCT-116 colon): 19.2 µM
GI50 (HCT-15 colon): 8.27 µM
TGI (HCT-15 colon): 21.9 µM
GI50 (HL-60(TB) leukemia): 26.4 µM
TGI (HL-60(TB) leukemia): > 100 µM
GI50 (HOP-62 NSCLC): 15.7 µM
TGI (HOP-62 NSCLC): 31.6 µM
GI50 (HOP-92 NSCLC): 13.4 µM
TGI (HOP-92 NSCLC): 30.8 µM
GI50 (HS 578T breast): 11.2 µM
TGI (HS 578T breast): 50.9 µM
GI50 (HT29 colon): 15.2 µM
TGI (HT29 colon): 45.5 µM
GI50 (IGROV1 ovarian): 11.6 µM
TGI (IGROV1 ovarian): 24.2 µM
GI50 (K-562 leukemia): 3.81 µM
TGI (K-562 leukemia): 21.3 µM
GI50 (KM12 colon): 20.5 µM
TGI (KM12 colon): 66 µM
GI50 (LOX IMVI melanoma): 6.22 µM
TGI (LOX IMVI melanoma): 19.1 µM
GI50 (M14 melanoma): 10.2 µM
TGI (M14 melanoma): 25.3 µM
GI50 (MALME-3M melanoma): 11.7 µM
TGI (MALME-3M melanoma): 24.5 µM
GI50 (MCF7 breast): 10 µM
TGI (MCF7 breast): 23.2 µM
GI50 (MDA-MB-231 breast): 10.8 µM
TGI (MDA-MB-231 breast): 23.2 µM
GI50 (MDA-MB-435): 14.6 µM
TGI (MDA-MB-435): 31 µM
GI50 (MDA-MB-468 breast): 11.6 µM
TGI (MDA-MB-468 breast): 24.4 µM
GI50 (MOLT-4 leukemia): 7.51 µM
TGI (MOLT-4 leukemia): 27.3 µM
GI50 (NCI-H226 lung): 14.1 µM
TGI (NCI-H226 lung): 30.2 µM
GI50 (NCI-H23 lung): 6.59 µM
TGI (NCI-H23 lung): 19.7 µM
GI50 (NCI-H460 lung): 4.68 µM
TGI (NCI-H460 lung): 16.8 µM
GI50 (NCI-H522 lung): 19.7 µM
TGI (NCI-H522 lung): 41.6 µM
GI50 (NCI/ADR-RES ovarian): 15.9 µM
TGI (NCI/ADR-RES ovarian): 68 µM
GI50 (OVCAR-3 ovarian): 18 µM
TGI (OVCAR-3 ovarian): 42.3 µM
GI50 (OVCAR-4 ovarian): 15.5 µM
TGI (OVCAR-4 ovarian): 31.4 µM
GI50 (OVCAR-5 ovarian): 14.5 µM
TGI (OVCAR-5 ovarian): 32.7 µM
GI50 (OVCAR-8 ovarian): 18.1 µM
TGI (OVCAR-8 ovarian): 55.5 µM
GI50 (PC-3 prostate): 7.48 µM
TGI (PC-3 prostate): 24.9 µM
GI50 (RPMI-8226 leukemia): 16.6 µM
TGI (RPMI-8226 leukemia): > 100 µM
GI50 (RXF 393 renal): 10.5 µM
TGI (RXF 393 renal): 24.4 µM
GI50 (SF-268 CNS): 21.2 µM
TGI (SF-268 CNS): 53.5 µM
GI50 (SF-295 CNS): 12 µM
TGI (SF-295 CNS): 24.4 µM
GI50 (SF-539 CNS): 16.6 µM
TGI (SF-539 CNS): 30.6 µM
GI50 (SK-MEL-2 melanoma): 18.6 µM
TGI (SK-MEL-2 melanoma): 40 µM
GI50 (SK-MEL-28 melanoma): 12.5 µM
TGI (SK-MEL-28 melanoma): 25.3 µM
GI50 (SK-MEL-5 melanoma): 15.1 µM
TGI (SK-MEL-5 melanoma): 30.1 µM
GI50 (SK-OV-3 ovarian): 16 µM
TGI (SK-OV-3 ovarian): 32.8 µM
GI50 (SN12C renal): 12.7 µM
TGI (SN12C renal): 25.8 µM
GI50 (SNB-19 CNS): 15.4 µM
TGI (SNB-19 CNS): 29.5 µM
GI50 (SNB-75 CNS): 5.23 µM
TGI (SNB-75 CNS): 19.8 µM
GI50 (SR leukemia): 0.62 µM
TGI (SR leukemia): > 100 µM
GI50 (SW-620 colon): 6.79 µM
TGI (SW-620 colon): 23 µM
GI50 (T-47D breast): 19.3 µM
TGI (T-47D breast): 42.9 µM
GI50 (TK-10 renal): 19.5 µM
TGI (TK-10 renal): 38.3 µM
GI50 (U251 CNS): 14.2 µM
TGI (U251 CNS): 33.1 µM
GI50 (UACC-257 melanoma): 21.1 µM
TGI (UACC-257 melanoma): 46.6 µM
GI50 (UACC-62 melanoma): 12.6 µM
TGI (UACC-62 melanoma): 25.4 µM
GI50 (UO-31 renal): 13.1 µM
TGI (UO-31 renal): 26.3 µM
